Structures are written as SMILES. Structures can show the parent of a compound that is named as a salt.

The test system of data set [1] is Staphylococcus aureus IID 803. In words: Effect on treatment of general infectious disease. It is filed as in vivo, ddY male mice. The note with it: IID803, 168 h, S. aureus IID 803, 1.0×10^6 CFU/mouse i.p., oral one hour after infection, survival after one week. Here is the method:
Staphylococcus aureus IID 803 (1.0×10^6 CFU/mouse)
(§1) The test microorganisms were subjected to standing culture in Trypto-Soya Agar "Nissui" (made by Nissui Seiyaku K.K., Japan) at 37° C. for 16 to 18 hours. The culture was then diluted with PBS (Dulbecco's phosphate buffered saline) and mixed with an equivalent amount of 10% (w/v) Mucin (BACTO MUCIN BACTERIOLOGICAL, made by Difco Co.) to prepare a microorganism solution. The thus prepared microorganism solution (0.5 ml each) was intraperitoneally innoculated to ddY male mice (4 weeks age, weighing 20-22 g, 5 mice in each group), to infect the animals. One hour after the infection, the compound (B) of the present invention dissolved in sterilized distilled water or ofloxacin suspended in 0.5% (w/v) aqueous sodium carboxymethyl cellulose solution was orally adiministered to mice.
(§2) The mice were daily observed for one week, and from the survival number of mice after one week, the 50% effective dose (ED50) was calculated by Weil method.

The next data set concerns Escherichia coli KC-14. In words: Effect on treatment of general infectious disease. It is filed as in vivo, ddY male mice. The conditions noted are these: KC14, 168 h, E. coli KC-14, 1.2×10^4 CFU/mouse i.p., oral one hour after infection, survival after one week. The method, then:
Escherichia coli KC-14 (1.2×10^4 CFU/mouse)
as §1, §2

Data set [2] deals with Serratia marcescens IAM 1184. In words: Minimum inhibitory concentration (MIC). It is filed as cell-based. The note with it: Serratia marcescens IAM 1184, Gram -. The method, then:
(§3) The compounds of the present invention (A, C, E, F, G, H and I) and ofloxacin as control were dissolved in 0.1N aqueous potassium hydroxide to prepare a solution of 5000 μg/ml in concentration. The compounds of the present invention (B, D and J) were dissolved in sterilized distilled water to prepare a solution of 5000 μg/ml in concentration. Each solution was diluted with sterilized distilled water to prepare a standard solution with a concentration of each test compound: 1000 μg/ml. The test was carried out by a method approved by Japan Society of Chemotherapy [cf. Chemotherapy, 29, 76-79 (1981)(TOKYO)].

For data set [3], the system named is Streptococcus faecalis IID 682. In words: Minimum inhibitory concentration (MIC). The conditions noted are these: Streptococcus faecalis IID 682, Gram +. Format: cell-based. Here is the method: as §3
For data set [4], the system named is Klebsiella pneumoniae PCI 602. In words: Minimum inhibitory concentration (MIC). Format: cell-based. The note with it: Klebsiella pneumoniae, PCI602, Klebsiella pneumoniae PCI 602, Gram -; read-out: Minimum inhibitory concentration (MIC). Here is the method: as §3
In data set [5] the test system is Pseudomonas aeruginosa IFO 3445. Briefly: Minimum inhibitory concentration (MIC). Format: cell-based. The conditions noted are these: Pseudomonas aeruginosa IFO 3445, Gram -. Here is the method:
as §3

For another data set, the system named is E. coli KC-14. In words: Effect on treatment of infectiousness of the genito-urinary tract. It is filed as in vivo, ICR female mice. The conditions noted are these: Escherichia coli, KC14, 48 h; E. coli KC-14, 5.6×10^5 CFU/mouse into urinary bladder; oral; not more than 10^4 living bacteria/1 g of kidney regarded as effective. Here is the method:
2. Test microorganism and inoculum size E. coli KC-14 (5.6×10^5 CFU/mouse) 3. Method:
A microorganism solution (0.1 ml) prepared in the same manner as described in Experiment 3 was introduced into urinary bladder through urinary tract of ICR female mice (5 weeks age, weighing 20 to 22 g, 5 mice in each group), and then urinary meatus was clasped with clip for 4 hours to infect the animals. After taking off the clip, the compound (B) of the present invention dissolved in sterilized distilled water or ofloxacin suspended in 0.5% aqueous sodium carboxymethyl cellulose solution was orally administered to mice. Two days after the infection, mice kidneys were taken out and weighed, to which PBS (Dulbecco's phosphate buffered saline) was added and the mixture was homogenized. The homogenate was then diluted with PBS and inoculated onto a plate of modified Drigalski Agar (BTB lactose agar "Nissui", made by Nissui Seiyaku K.K., Japan) and cultured at 37° C. for 18 hours. The number of the colonies of infectious bacteria grown on the plate was counted. The number of living bacteria per 1 g of kidney was calculated from the number of colonies and the kidney weight. The living bacteria number/1 g of kidney of not more than 10^4 was regarded as effective and an effective dose for 50% mice (ED50) was calculated by Weil method.

Another data set deals with ddY male mice. In words: Acute toxicity (LD50). Format: in vivo. The conditions noted are these: oral, ddY male mice fasted for 18 hours, Weil method. The method, then:
The compound (B) of the present invention was dissolved in sterilized distilled water and the solution was orally administered to ddY male mice (5 weeks age, weighing 20 to 25 g, 5 mice in each group), which had been fasted for 18 hours.

The test system of data set [6] is methicillin resistant Staphylococcus aureus. Briefly: Minimum inhibitory concentration against clinically isolated methicillin resistant Staphylococcus aureus. Format: cell-based. The method, then: The compound (B) was dissolved in sterilized distilled water, and ofloxacin in 0.1N aqueous potassium hydroxide, to prepare a solution of 5000 μg/ml in concentration each. The above solutions were then diluted with sterilized distilled water to prepare a standard solution with a concentration of the test compound: 1000 μg/ml each. The test was carried out by a method approved by Japan Society of Chemotherapy (ibidem) to measure minimum inhibitory concentration (MIC) against 54 strains of clinically isolated methicillin resistant Staphylococcus aureus, from which there were calculated a range of MIC (MICrange) of the test compound against these resistant strains, a minimum concentration for inhibiting the growth of the strains by 50% (MIC50) and a minimum concentration for inhibiting the growth of the strains by 90% (MIC90).

The test system of data set [7] is Pseudomonas aeruginosa E-2. In words: Effect on treatment of general infectious disease. Format: in vivo, ddY male mice. The note with it: E2, 168 h, P. aeruginosa E-2, 1.6×10^4 CFU/mouse i.p., oral one hour after infection, survival after one week. Here is the method: Pseudomonas aeruginosa E-2 (1.6×10^4 CFU/mouse)
as §1, §2

As for `CN1CCN(c2c(F)cc3c(=O)c(C(=O)O)c4scc5n4c3c2OC5)CC1` [Compound (B), 9,1-Epoxymethano-7-fluoro-8-(4-methyl-1-piperazinyl)-5-oxo-5H-thiazolo[3,2-a]quinoline-4-carboxylic acid.hydrochloride], the ED50 in data set [1] was determined as 8.1 mg/kg; in the data set with Escherichia coli KC-14 it was 1 mg/kg; with E. coli KC-14 it was 21.7 mg/kg; in data set [7] it was 17.7 mg/kg. Further, the “Minimum inhibitory concentration (MIC)” value was 0.39 µg/mL in data set [2], 0.78 µg/mL in [3] and 1.56 µg/mL in data set [5]. In addition, the MIC in data set [4] is 0.025 µg/mL; in data set [6] (54 strains of clinically isolated methicillin resistant Staphylococcus aureus), 0.1 to 0.39 µg/mL. For the same compound, in the data set with ddY male mice, the LD50 was determined as 1231 mg/kg. In data set [6] (Staphylococcus aureus, minimum concentration for inhibiting the growth of the strains by 50%, 54 strains), this compound had an MIC50 of 0.2 µg/mL. The compound also registered an MIC90 in [6] (Staphylococcus aureus, minimum concentration for inhibiting the growth of the strains by 90%, 54 strains) of 0.2 µg/mL.

Usually ED50 stands for the midpoint of the dose-response relation. A word on the LD50: it is the dose expected to kill half of the subjects tested. High values mean lower toxicity, low ones greater toxicity. As a reminder, the MIC50 is an inhibitory concentration at the 50% level, which refers to growth in some studies and to a panel of isolates in others. One may read the MIC90 as the lowest concentration that inhibits either 90% of growth or 90% of the strains tested, depending on the study. High values mean weaker potency, low ones greater potency.
